Molecular target: T1, Recombinant human KIF18A (1-467His-tagged) protein (Homo sapiens, UniProt Q8NI77)
T1 construct: Recombinant human KIF18A (1-467His-tagged) protein; His; made in house
Experiment: KIF18A enzyme assay (microtubule-stimulated ATPase activity, ADP-Glo)
Assay type: biochemical
Details: 30 nM KIF18A, 75 μM ATP, 30 μg/mL pig microtubules; read-out: Inhibitory activity against KIF18A IC50
Description: In Vitro Assay of the Compounds of the Present Invention for Inhibiting Enzymatic Activity of KIF18A
KIF18A enzyme assay: The enzymatic activity of KIF18A after treatment with the compounds was measured by an assay of microtubule-stimulated ATPase activity. ADP generated from the ATPase reaction was measured in this assay. The compounds were serially diluted 2-fold in DMSO over a range of 22 concentration points. […] Concentrations of KIF18A protein, microtubules, and ATP in the reaction were optimized for a standardized homogenous enzyme assay using an ADP-Glo kinase/ATPase assay kit. A reaction buffer [(15 mM Tris, pH 7.5), 10 mM MgCl2, 0.01% PluronicF-68, 1 μM paclitaxel, and 30 μg/mL pig microtubules] was prepared. […] The resulting reaction mixture was incubated at room temperature for another 15 min. 5 μL of ADP-Glo reagent and 2.5 μL of the reaction mixture were mixed and the resulting mixture was incubated at room temperature for 40 min. 10 μL of ADP-Glo detection reagent was added and the mixture was incubated at room temperature for 40 min. Luminescence was read using a microplate reader and compared with that of the DMSO group, and then the inhibition percentages and IC50 values of the compounds were calculated.

T1 sequence (Q8NI77 1-467): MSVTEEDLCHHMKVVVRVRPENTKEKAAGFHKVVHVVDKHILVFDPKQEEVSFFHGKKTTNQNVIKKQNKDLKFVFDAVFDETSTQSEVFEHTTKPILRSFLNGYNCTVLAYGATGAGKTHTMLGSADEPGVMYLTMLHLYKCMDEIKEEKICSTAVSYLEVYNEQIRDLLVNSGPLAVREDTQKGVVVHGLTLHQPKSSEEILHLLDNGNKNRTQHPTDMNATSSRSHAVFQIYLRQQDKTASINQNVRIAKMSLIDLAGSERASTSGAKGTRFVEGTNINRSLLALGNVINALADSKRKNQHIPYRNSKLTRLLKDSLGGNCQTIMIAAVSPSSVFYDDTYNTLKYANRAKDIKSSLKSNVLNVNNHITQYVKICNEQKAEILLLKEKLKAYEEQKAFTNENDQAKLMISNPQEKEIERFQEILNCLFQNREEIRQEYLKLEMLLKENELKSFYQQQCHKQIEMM
T1 sequence (P02550 whole entry partner): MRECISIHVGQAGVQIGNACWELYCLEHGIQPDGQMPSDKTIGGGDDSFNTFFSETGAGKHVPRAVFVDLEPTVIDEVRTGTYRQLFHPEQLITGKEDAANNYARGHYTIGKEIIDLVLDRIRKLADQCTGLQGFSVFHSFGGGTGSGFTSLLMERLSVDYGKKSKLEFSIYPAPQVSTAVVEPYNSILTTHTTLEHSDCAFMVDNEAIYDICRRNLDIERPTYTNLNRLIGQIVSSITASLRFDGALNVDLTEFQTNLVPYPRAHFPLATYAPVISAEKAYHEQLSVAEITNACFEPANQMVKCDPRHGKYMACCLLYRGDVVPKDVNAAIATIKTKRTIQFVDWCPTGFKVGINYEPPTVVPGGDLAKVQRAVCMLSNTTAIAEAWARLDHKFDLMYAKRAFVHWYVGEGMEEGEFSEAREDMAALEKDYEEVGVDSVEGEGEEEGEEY
T1 sequence (P02554 whole entry partner): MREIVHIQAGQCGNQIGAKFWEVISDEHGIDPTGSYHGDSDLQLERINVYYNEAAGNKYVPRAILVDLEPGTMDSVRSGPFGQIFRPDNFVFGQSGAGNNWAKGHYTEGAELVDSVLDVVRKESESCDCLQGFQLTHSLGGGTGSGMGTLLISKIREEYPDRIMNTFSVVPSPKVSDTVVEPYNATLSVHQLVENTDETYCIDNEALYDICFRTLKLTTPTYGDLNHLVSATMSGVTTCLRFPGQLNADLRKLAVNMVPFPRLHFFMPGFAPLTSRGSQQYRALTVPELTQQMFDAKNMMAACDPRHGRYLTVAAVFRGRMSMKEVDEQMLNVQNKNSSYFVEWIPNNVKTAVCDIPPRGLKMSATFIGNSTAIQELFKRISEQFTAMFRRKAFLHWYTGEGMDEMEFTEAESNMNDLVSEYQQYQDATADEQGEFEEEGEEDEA

Row | SMILES | IC50
1 | CC(C)(CO)Nc1cc(NC(=O)c2ccc(S(=O)(=O)NCCO)cc2N2CCC3(CC2)CC3)ccc1[N+](=O)[O-] [Compound 27] | ≤ 0.1 µM
2 | O=C(Nc1ccc([N+](=O)[O-])c(N2CCOCC2)c1)c1ccc(S(=O)(=O)NCCO)cc1N1CCC2(CC1)CC2 [Compound 28] | ≤ 0.1 µM
3 | C[C@@H](CO)NS(=O)(=O)c1ccc(C(=O)Nc2ccc([N+](=O)[O-])c(N3CCC(F)(F)CC3)c2)c(N2CCC3(CC2)CC3)c1 [Compound 29] | ≤ 0.1 µM
4 | C[C@H](CO)NS(=O)(=O)c1ccc(C(=O)Nc2ccc([N+](=O)[O-])c(N3CCC(F)(F)CC3)c2)c(N2CCC3(CC2)CC3)c1 [Compound 30] | ≤ 0.1 µM
5 | C[C@@H]1CN(c2cc(NC(=O)c3ccc(S(=O)(=O)N[C@@H](C)CO)cc3N3CCC4(CC3)CC4)ccc2[N+](=O)[O-])CCO1 [Compound 31] | ≤ 0.1 µM
6 | C[C@H](CO)NS(=O)(=O)c1ccc(C(=O)Nc2ccc([N+](=O)[O-])c(N3CCO[C@H](C)C3)c2)c(N2CCC3(CC2)CC3)c1 [Compound 32] | ≤ 0.1 µM
7 | O=C(Nc1ccc(NS(=O)(=O)CCO)cc1N1CCC2(CC1)CC2)c1ccc([N+](=O)[O-])c(N2CCC(F)(F)CC2)c1 [Compound 33] | ≤ 0.1 µM
8 | C[C@@H]1CN(c2cc(C(=O)Nc3ccc(NS(=O)(=O)CCO)cc3N3CCC4(CC3)CC4)ccc2[N+](=O)[O-])CCO1 [Compound 34] | ≤ 0.1 µM
9 | C[C@H]1CN(c2cc(C(=O)Nc3ccc(NS(=O)(=O)CCO)cc3N3CCC4(CC3)CC4)ccc2[N+](=O)[O-])CCO1 [Compound 35] | 0.1 to 0.5 µM
10 | O=C(Nc1ccc(NS(=O)(=O)CCO)cc1N1CCC2(CC1)CC2)c1ccc([N+](=O)[O-])c(N2CC(F)(F)C2)c1 [Compound 36] | ≤ 0.1 µM
11 | O=C(Nc1ccc(NS(=O)(=O)CCO)cc1N1CCC2(CC1)CC2)c1ccc([N+](=O)[O-])c(OCCC(F)(F)F)c1 [Compound 37] | ≤ 0.1 µM
12 | O=C(Nc1ccc(NS(=O)(=O)CCO)cc1N1CCC2(CC1)CC2)c1ccc([N+](=O)[O-])c(N2CCC3(CC3)C2)c1 [Compound 38] | ≤ 0.1 µM
13 | O=C(Nc1ccc(NS(=O)(=O)CCO)cc1N1CCC2(CC1)CC2)c1ccc([N+](=O)[O-])c(OC2CCC2)c1 [Compound 39] | ≤ 0.1 µM
14 | CC1(F)CCN(c2cc(C(=O)Nc3ccc(NS(=O)(=O)CCO)cc3N3CCC4(CC3)CC4)ccc2[N+](=O)[O-])C1 (centres unmarked) [Compound 40] | ≤ 0.1 µM
15 | O=C(Nc1ccc(NS(=O)(=O)CCO)cc1N1CCC2(CC1)CC2)c1ccc([N+](=O)[O-])c(N2CCC(F)CC2)c1 [Compound 41] | ≤ 0.1 µM
16 | O=C(Nc1ccc(NS(=O)(=O)CCO)cc1N1CCC2(CC1)CC2)c1ccc([N+](=O)[O-])c(N2CC3CC3C2)c1 (centres unmarked) [Compound 42] | ≤ 0.1 µM
17 | CC(C)(CO)Nc1cc(C(=O)Nc2ccc(NS(=O)(=O)CCO)cc2N2CCC3(CC2)CC3)ccc1[N+](=O)[O-] [Compound 43] | ≤ 0.1 µM
18 | O=C(Nc1ccc(NS(=O)(=O)CCO)cc1N1CCC2(CC1)CC2)c1ccc([N+](=O)[O-])c(N2CCOCC2)c1 [Compound 44] | ≤ 0.1 µM
19 | C[C@@H](CO)S(=O)(=O)Nc1ccc(NC(=O)c2ccc([N+](=O)[O-])c(N3CCC(F)(F)CC3)c2)c(N2CCC3(CC2)CC3)c1 [Compound 45] | 0.1 to 0.5 µM
20 | C[C@H](CO)S(=O)(=O)Nc1ccc(NC(=O)c2ccc([N+](=O)[O-])c(N3CCC(F)(F)CC3)c2)c(N2CCC3(CC2)CC3)c1 [Compound 46] | 0.1 to 0.5 µM
21 | C[C@@H]1CN(c2cc(C(=O)Nc3ccc(NS(=O)(=O)[C@@H](C)CO)cc3N3CCC4(CC3)CC4)ccc2[N+](=O)[O-])CCO1 [Compound 47] | 0.1 to 0.5 µM
22 | C[C@@H]1CN(c2cc(C(=O)Nc3ccc(NS(=O)(=O)[C@H](C)CO)cc3N3CCC4(CC3)CC4)ccc2[N+](=O)[O-])CCO1 [Compound 48] | 0.1 to 0.5 µM
23 | O=C(Nc1ccc(S(=O)(=O)NCCO)cc1N1CCC2(CC1)CC2)c1ccc([N+](=O)[O-])c(N2CCC(F)(F)CC2)c1 [Compound 49] | 0.1 to 0.5 µM

Next, values leading:

Row | IC50 | SMILES
24 | ≤ 0.1 µM | C[C@@H]1CN(c2cc(NC(=O)c3ccc(NS(=O)(=O)CCO)cc3N3CCC4(CC3)CC4)ccc2[N+](=O)[O-])CCO1 [Compound 2]
25 | ≤ 0.1 µM | O=C(Nc1ccc([N+](=O)[O-])c(OCCC(F)(F)F)c1)c1ccc(NS(=O)(=O)CCO)cc1N1CCC2(CC1)CC2 [Compound 5]
26 | ≤ 0.1 µM | CC1(F)CCN(c2cc(NC(=O)c3ccc(NS(=O)(=O)CCO)cc3N3CCC4(CC3)CC4)ccc2[N+](=O)[O-])C1 (centres unmarked) [Compound 8]
27 | ≤ 0.1 µM | O=C(Nc1ccc([N+](=O)[O-])c(N2CCC(F)CC2)c1)c1ccc(NS(=O)(=O)CCO)cc1N1CCC2(CC1)CC2 [Compound 9]
28 | ≤ 0.1 µM | O=C(Nc1ccc([N+](=O)[O-])c(N2CC3CC3C2)c1)c1ccc(NS(=O)(=O)CCO)cc1N1CCC2(CC1)CC2 (centres unmarked) [Compound 10]
29 | ≤ 0.1 µM | CC(C)(CO)Nc1cc(NC(=O)c2ccc(NS(=O)(=O)CCO)cc2N2CCC3(CC2)CC3)ccc1[N+](=O)[O-] [Compound 11]
30 | ≤ 0.1 µM | O=C(Nc1ccc([N+](=O)[O-])c(N2CCOCC2)c1)c1ccc(NS(=O)(=O)CCO)cc1N1CCC2(CC1)CC2 [Compound 12]
31 | ≤ 0.1 µM | C[C@@H](CO)S(=O)(=O)Nc1ccc(C(=O)Nc2ccc([N+](=O)[O-])c(N3CCC(F)(F)CC3)c2)c(N2CCC3(CC2)CC3)c1 [Compound 13]
32 | ≤ 0.1 µM | C[C@H](CO)S(=O)(=O)Nc1ccc(C(=O)Nc2ccc([N+](=O)[O-])c(N3CCC(F)(F)CC3)c2)c(N2CCC3(CC2)CC3)c1 [Compound 14]
33 | ≤ 0.1 µM | C[C@@H]1CN(c2cc(NC(=O)c3ccc(NS(=O)(=O)[C@@H](C)CO)cc3N3CCC4(CC3)CC4)ccc2[N+](=O)[O-])CCO1 [Compound 15]
34 | ≤ 0.1 µM | C[C@@H]1CN(c2cc(NC(=O)c3ccc(NS(=O)(=O)[C@H](C)CO)cc3N3CCC4(CC3)CC4)ccc2[N+](=O)[O-])CCO1 [Compound 16]
35 | ≤ 0.1 µM | O=C(Nc1ccc([N+](=O)[O-])c(N2CCC(F)(F)CC2)c1)c1ccc(S(=O)(=O)NCCO)cc1N1CCC2(CC1)CC2 [Compound 17]
36 | ≤ 0.1 µM | C[C@@H]1CN(c2cc(NC(=O)c3ccc(S(=O)(=O)NCCO)cc3N3CCC4(CC3)CC4)ccc2[N+](=O)[O-])CCO1 [Compound 18]
37 | ≤ 0.1 µM | C[C@H]1CN(c2cc(NC(=O)c3ccc(S(=O)(=O)NCCO)cc3N3CCC4(CC3)CC4)ccc2[N+](=O)[O-])CCO1 [Compound 19]
38 | ≤ 0.1 µM | O=C(Nc1ccc([N+](=O)[O-])c(N2CC(F)(F)C2)c1)c1ccc(S(=O)(=O)NCCO)cc1N1CCC2(CC1)CC2 [Compound 20]
39 | ≤ 0.1 µM | O=C(Nc1ccc([N+](=O)[O-])c(OCCC(F)(F)F)c1)c1ccc(S(=O)(=O)NCCO)cc1N1CCC2(CC1)CC2 [Compound 21]
40 | ≤ 0.1 µM | O=C(Nc1ccc([N+](=O)[O-])c(N2CCC3(CC3)C2)c1)c1ccc(S(=O)(=O)NCCO)cc1N1CCC2(CC1)CC2 [Compound 22]
41 | ≤ 0.1 µM | O=C(Nc1ccc([N+](=O)[O-])c(OC2CCC2)c1)c1ccc(S(=O)(=O)NCCO)cc1N1CCC2(CC1)CC2 [Compound 23]
42 | ≤ 0.1 µM | CC1(F)CCN(c2cc(NC(=O)c3ccc(S(=O)(=O)NCCO)cc3N3CCC4(CC3)CC4)ccc2[N+](=O)[O-])C1 (centres unmarked) [Compound 24]
43 | ≤ 0.1 µM | O=C(Nc1ccc([N+](=O)[O-])c(N2CCC(F)CC2)c1)c1ccc(S(=O)(=O)NCCO)cc1N1CCC2(CC1)CC2 [Compound 25]
44 | ≤ 0.1 µM | O=C(Nc1ccc([N+](=O)[O-])c(N2CC3CC3C2)c1)c1ccc(S(=O)(=O)NCCO)cc1N1CCC2(CC1)CC2 (centres unmarked) [Compound 26]
